Assay [1] concerns the target high-affinity K site (Homo sapiens, UniProt P20648). The conditions noted are these: cited from earlier work.
In assay [2] the test system is gastric microsomal K-pNPPase. The assay can be described thus: K-pNPPase activity of gastric microsomes. The class given is biochemical.
In assay [3] the test system is chambered bull frog gastric mucosa. As to conditions: cited from earlier work.
In assay [4] the test system is Na—K-ATPase. The conditions noted are these: cited from earlier work.
The target in assay [5] is H, K-ATPase (Homo sapiens, UniProt P20648). As to conditions: cited from earlier work.
H, K-ATPase, sequence (P20648 whole entry): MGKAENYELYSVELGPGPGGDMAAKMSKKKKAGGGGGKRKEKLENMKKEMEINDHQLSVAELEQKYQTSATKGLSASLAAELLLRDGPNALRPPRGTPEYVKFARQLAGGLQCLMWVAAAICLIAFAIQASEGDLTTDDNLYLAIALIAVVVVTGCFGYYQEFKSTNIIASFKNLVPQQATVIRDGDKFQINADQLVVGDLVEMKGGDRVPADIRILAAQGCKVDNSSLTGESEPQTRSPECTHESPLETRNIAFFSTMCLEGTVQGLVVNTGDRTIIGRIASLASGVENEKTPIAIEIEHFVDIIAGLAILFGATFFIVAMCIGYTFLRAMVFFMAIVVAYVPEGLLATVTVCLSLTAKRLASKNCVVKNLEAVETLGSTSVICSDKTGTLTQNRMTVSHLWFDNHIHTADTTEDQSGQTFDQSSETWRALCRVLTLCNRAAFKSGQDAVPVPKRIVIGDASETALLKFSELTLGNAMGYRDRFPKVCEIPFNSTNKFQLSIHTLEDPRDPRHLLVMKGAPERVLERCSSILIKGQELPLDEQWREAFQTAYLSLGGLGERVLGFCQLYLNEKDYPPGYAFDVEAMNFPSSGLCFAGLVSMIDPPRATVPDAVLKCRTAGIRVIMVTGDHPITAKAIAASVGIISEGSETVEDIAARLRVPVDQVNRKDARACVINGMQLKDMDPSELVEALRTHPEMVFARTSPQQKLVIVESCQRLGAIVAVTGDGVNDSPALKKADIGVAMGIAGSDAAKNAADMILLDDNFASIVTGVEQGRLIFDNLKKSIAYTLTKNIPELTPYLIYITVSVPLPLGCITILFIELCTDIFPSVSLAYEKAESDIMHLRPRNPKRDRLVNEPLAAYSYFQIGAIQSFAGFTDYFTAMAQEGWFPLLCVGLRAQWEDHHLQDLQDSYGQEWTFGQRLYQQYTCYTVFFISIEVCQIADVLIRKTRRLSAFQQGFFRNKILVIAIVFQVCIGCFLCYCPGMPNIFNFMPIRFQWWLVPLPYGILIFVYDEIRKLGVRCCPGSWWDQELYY
H, K-ATPase, sequence (P51164 whole entry partner): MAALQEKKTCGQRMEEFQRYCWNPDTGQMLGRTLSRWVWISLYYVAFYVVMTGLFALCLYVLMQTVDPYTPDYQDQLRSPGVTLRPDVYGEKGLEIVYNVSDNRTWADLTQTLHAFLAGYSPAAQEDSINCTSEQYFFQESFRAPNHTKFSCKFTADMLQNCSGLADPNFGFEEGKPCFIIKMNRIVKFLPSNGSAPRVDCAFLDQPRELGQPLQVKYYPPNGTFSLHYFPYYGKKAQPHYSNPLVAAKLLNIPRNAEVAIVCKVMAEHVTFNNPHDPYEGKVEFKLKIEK
Assay [6] has as its system mitosis. As to conditions: cited from earlier work.
In assay [7] the target is T1, neutrophil elastase (Homo sapiens, UniProt P08246).
T1 sequence (P08246 30-267): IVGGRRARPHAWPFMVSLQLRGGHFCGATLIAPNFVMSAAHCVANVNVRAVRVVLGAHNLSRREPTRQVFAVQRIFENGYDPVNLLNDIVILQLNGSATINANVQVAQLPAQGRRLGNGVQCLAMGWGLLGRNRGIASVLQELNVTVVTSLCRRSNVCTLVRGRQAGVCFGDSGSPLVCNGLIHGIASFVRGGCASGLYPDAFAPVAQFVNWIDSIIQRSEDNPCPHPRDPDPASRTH
As to conditions: cited from earlier work.

In assay [8] the test system is activated neutrophils. As to conditions: micromolar EGCG; cited from earlier work.
The test system of assay [9] is neutrophil-mediated angiogenesis. As to conditions: oral; in vivo; cited from earlier work.
Assay [10] has as its system neutrophil chemotaxis. The conditions noted are these: in vitro; cited from earlier work.
Assay [11] has as its system gastric H, K-ATPase. The assay can be described thus: H, K-ATPase activity of isolated gastric microsomal vesicles. The class given is biochemical. The text has this:
(§1) Heavy-metal ions generally comprise Ba, Ca, and Zn and show synergistic inhibition when used in combination with thiocyanate and isothiocyanate. Zinc (Zn) inhibits acid secretion by a mechanism quite different than Barium and Calcium.

Assay [12] relates to chambered bull frog gastric mucosa. The assay can be described thus: acid secretion by chambered bull frog gastric mucosa in vitro. It counts as cell-based.
From the text: The method further comprises Step 2 that includes testing to determine if a candidate molecule inhibits the H, K-ATPase activity (inhibits the pump turnover), then test in an appropriate animal model(s) for the antisecretary activity and select the best candidates for clinical trial, as in Step 6.
as §1
However, SCN and ZN include different modes of operation.

For assay [13], the system named is lipoxygenase. As to conditions: cited from earlier work.
Assay [14] concerns inducible nitric oxide synthase (iNOS). As to conditions: activated macrophages; cited from earlier work.
The subject of assay [15] is AP-1 mediated transcription. The conditions noted are these: in vitro; cited from earlier work.
For assay [16], the target named is highly purified H, K-ATPase (Homo sapiens, UniProt P20648). As to conditions: cited from earlier work.
highly purified H, K-ATPase, sequence (P20648 whole entry): as the sequence (P20648 whole entry) above
highly purified H, K-ATPase, sequence (P51164 whole entry partner): as the sequence (P51164 whole entry partner) above
The subject of assay [17] is gastric H, K-ATPase. As to conditions: cited from earlier work.

Entries after “also recorded” stand apart in the source; their conditions may differ. Like-named read-outs stand apart in the source and are kept apart here.

The values that follow come from US20120237566A1, “INHIBITING STOMACH-ACID RELEASE, REDUCING INFLAMMATION AND PREVENTING AND TREATING CANCER: COMPOSITIONS AND METHODS OF USE” (Venture Isles, LLC, priority 2011, published 2012).

high-affinity K site, sequence (P20648 whole entry): as the sequence (P20648 whole entry) above
high-affinity K site, sequence (P51164 whole entry partner): as the sequence (P51164 whole entry partner) above

In the case of “2-[3,4]-dichlorophenylamino quinolizium bromide [nolinium bromide]”, the “interaction with the high-affinity K site” value in [1] was “interacts competitively”.
Take `[Ba+2]` [Barium]: the “K-pNPPase activity, antagonism with K” value in [2] was “parallel Ba/K antagonism”. In addition, the “reversal of inhibition of acid secretion by higher concentration of K” value in [3] is listed as “competitively reverses”. In addition, the acid secretion entry is given as “blocks the acid secretion” in [3] (higher concentration (above 1 mM)) and “slight stimulation” in [3] (less than 1 mM concentration).
As for `Clc1ccccc1C(c1ccccc1)(c1ccccc1)n1ccnc1` [CLT, clotrimazole], in assay [4], the “inhibition of Na—K-ATPase” value is “potent inhibitors”. For the same molecule, the “inhibition of H, K-ATPase” value in assay [5] is listed as “potent inhibitors”.
As to `[Ca+2]` [Calcium], the “response of K-pNPPase inhibition to higher K” value in assay [2] is listed as “nonresponsive to higher K”. In addition, the K-pNPPase activity entry in assay [2] (concentrations comparable to Ba) is “strong inhibition”.
Turning to `N#CSc1ccc(Cl)cc1Cl` [DCPT, 2,4-dichlorophenyl thiocyanate], the “anti-proliferative / antimitotic activity” value in assay [6] is listed as “anti-proliferative property; also recorded: antimitotic”.
As to `O=C(O[C@@H]1Cc2c(O)cc(O)cc2O[C@@H]1c1cc(O)c(O)c(O)c1)c1cc(O)c(O)c(O)c1` [EGCG, (−)epigallocatechin-3-gallate], the neutrophil elastase inhibition entry in [7] was “strongly inhibits”. For the same molecule, in assay [8], the “apoptosis of activated neutrophils” value is recorded as “inhibits” and the “reactive oxygen species activity” value is reported as “represses”. In addition, the neutrophil-mediated angiogenesis entry in [9] is “block”. Moreover, the chemokine-induced neutrophil chemotaxis entry in assay [10] is given as “dramatically inhibits”.
Take `Cc1nc2c(OCc3ccccc3)cccn2c1CC#N` [SCH 28080]: the “interaction with the high-affinity K site” value in assay [1] is listed as “interacts competitively”.
Consider `[Zn+2]` [Zn, Zinc], for which the “activity of the isolated H, K-ATPase” value in [11] was “strongly inhibited”. Besides, in [11] (2 μM), the “H, K-ATPase activity” value is listed as “abolished”. Also, the “H, K-ATPase activity” value in assay [11] (2 μM, listed as Zinc) was “abolishes”. The “sensitivity of H, K-ATPase activity relative to pNPPase activity” value in assay [11] (inhibition by Zn) was “ten times more sensitive”. In [12], the “inhibition of gastric-acid secretion” value is reported as “potent inhibitors”, the “reversal of inhibition of acid secretion by beta-mercaptoehanol (βME) in the secretary solution” value is “could be reversed” and the “reversal of inhibition of gastric acid secretion by raising K-salt in the bathing medium” value is on record as “totally ineffective”. In assay [12] (1 mM beta-mercapto-ehanol (βME)), the “restoration of acid secretion after Zn inhibition” value is “promptly restored”. The acid secretion result in assay [12] (at a concentration of 60 added to the secretary solution, within 15 min) is “reduces the acid secretion to near zero”. Further, in [2], the “activity of the isolated pNPPase” value is “strongly inhibited”. In addition, the K-pNPPase activity entry in assay [2] (20 μM) is “abolishes”.
With `COc1cc(C=CC(=O)CC(=O)C=Cc2ccc(O)c(OC)c2)ccc1O` [curcumin, 1,7-bis(4-hydroxy-3-methoxyphenyl)-1,6-heptadiene-3,5-dione], the lipoxygenase inhibition result in assay [13] was “inhibits”. In assay [14], the “inducible nitric oxide synthase (iNOS)” value was “suppresses”. In addition, the “AP-1 mediated transcription related to cytokine regulation” value in [15] was “inhibits”.
`N#C[S-].[Na+]` [thiocyanate, Sodium thiocyanate]: the “H, K-ATPase activity” value in assay [11] (10 mM) was “totally ineffective”. In addition, in [16], the “binding to purified H, K-ATPase” value is given as “specific binding” and the “displacement of bound SCN by K” value is “could be displaced by K”. In addition, in assay [16] (listed as SCN), the “binding to purified H, K-ATPase” value is reported as “binding to a specific site”. In [12], the “inhibition of gastric-acid secretion” value is “potent inhibitors” and the “reversal of inhibition of gastric acid secretion by raising K-salt in the bathing medium” value was “can be reversed”. Also, in assay [2], the “reversal of K-pNPPase inhibition by high K” value is given as “reversed by high K”. In addition, the K-pNPPase activity result in assay [2] (10 mM) is recorded as “abolished”. Further, the “gastric H transport” value in assay [3] is listed as “potent inhibitor”. Moreover, the “H, K-ATPase mediated hydrolysis of ATP (ATPase activity)” value in assay [17] was “does not inhibit”.
